Assay results taken from PubChem BioAssay AID1963964 (Molecular Pharmacology Branch, DTP, NCI, 2024).
pIC50: −log10 of the molar value.

System: 997726-040-R-J2-PDC tumor spheroids, viability
Assay: Anticancer human tumor 997726-040-R-J2-PDC patient-derived squamous cell lung carcinoma cell line growth inhibition [PI3K]
Conditions: spheroids with HUVEC and MSC; for pIC50: curve of first compound; for viability, T/C: stronger effect = lower value; active = viability on the fitted dose curve at most 10% of control; inactive = the rest
Source text: Combinatorial screen of targeted agents with the PI3K inhibitors inavolisib, alpelisib, duvelisib, and copanlisib in multi-cell type tumor spheroids
A high-throughput screen of multi-cell type tumor spheroids was designed to identify active combinations of targeted small molecules and PI3K pathway inhibitors. Complex spheroids include a stromal component modeled by human endothelial cells (HUVEC) and fibroblasts modeled by human mesenchymal stem cells (MSCs). The concentration ranges selected for each drug and investigational agent were based upon clinically achievable concentrations if the clinical Cmax of the agent was known.
Compounds. The drugs and investigational agents: inavolisib (NSC800729), alpelisib (NSC765974), duvelisib (NSC772469), copanlisib (NSC816437), ipatasertib (NSC767898), afuresertib (NSC778305), talazoparib (NSC767125), sapanisertib (NSC764658), selumetinib (NSC741078), tovorafenib (DAY101, NSC766906), vemurafenib (NSC761431), ravoxertinib (NSC781343), sotorasib (NSC818433), MRTX1133 (NSC 836407), abemaciclib (NSC 768073), palbociclib (NSC758247), venetoclax (NSC 766270), SY5609 (NSC837396), enzalutamide (NSC755605), and darolutamide (NSC825331), were obtained from the National Cancer Institute (NCI) Developmental Therapeutics Program Chemical Repository. The FDA-approved anticancer drug set is available from the NCI Developmental Therapeutics Program. […] The stock solutions were prepared in dimethyl sulfoxide (DMSO, Sigma-Aldrich, St. Louis, MO, cat. D2650) at 800-fold the tested concentration and stored at -70 degrees C prior to their use. All drugs and investigational agents were tested over a range starting from a high concentration at or near the clinical Cmax and decreasing in half-log increments. If the clinical Cmax for an agent had not been determined, the highest concentration tested was 10 microM.
Cell Culture. All cells were maintained in an incubator at 37 degrees C and 5% CO2 with 95% humidity. The PDC lines were cultured according to standard operating procedures established by the NCI PDMR (https://pdmr.cancer.gov/sops/default.htm). All PDCs were thawed and cultured in Matrigel-coated flasks prepared with a working solution of 1X Ham's F-12 nutrient mix, without supplementation (Invitrogen, Waltham, MA, cat. 11765054), 100 U/mL penicillin-streptomycin (Invitrogen, cat. 15140122), and 2.5% Matrigel (Corning Inc., Corning, NY, cat. 354248) for the first three passages. The 354836-022-R-J1-PDC, 475296-252-R-J1-PDC, and 997726-040-R-J2-PDC lines were cultured in 6A media, which includes advanced DMEM/F-12 (Thermo Fisher Scientific, cat. 12634028), 10 mM HEPES (Thermo Fisher Scientific, cat. 15630080), 1X GlutaMAX supplement (Thermo Fisher Scientific, cat. 35050061), 0.1 mg/mL primocin (InvivoGen, San Diego, CA, cat. ant-pm-2), 10% defined fetal bovine serum, heat inactivated (HyClone Laboratories Inc., Logan, UT, cat. SH30070.03HI), 50% L-WRN conditioned media (ATCC, cat. CRL-3276), 1.25 mM N-Acetyl-L-cysteine (Sigma-Aldrich, cat. A9165), 10 mM nicotinamide (Sigma-Aldrich, cat. N0636), 1X B-27 supplement (Thermo Fisher Scientific, cat. 17504044), 1X N-2 supplement (Thermo Fisher Scientific, cat. 17502048), and 10 microM Y-27632 dihydrochloride (Tocris Bioscience, Bristol, United Kingdom, cat. 1254). The 624824-186-R-J2-PDC line was cultured in 6C/Colon 1B media, which includes all 6A media components plus 50 ng/mL human EGF recombinant protein (Thermo Fisher Scientific, cat. PHG0311). […]
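Note: spheroids exposed to compounds for seven days before readout.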

CC(C)n1nc(-c2ccc3oc(N)nc3c2)c2c(N)ncnc21 + CC(Nc1ncnc2nc[nH]c12)c1cc2cccc(Cl)c2c(=O)n1-c1ccccc1
7.68: pIC50 (second compound 1 µM)
7.63: pIC50 (second compound 0.0316 µM)
7.62: pIC50 (second compound 0.316 µM)
8.60: pIC50 (second compound 10 µM)
8.21: pIC50 (second compound 3.16 µM)
inactive: viability, T/C (second compound 0.0316 µM, first compound 0.000316 µM) 99.1% | viability, T/C (second compound 0.0316 µM, first compound 0.001 µM) 89.6% | viability, T/C (second compound 0.0316 µM, first compound 0.00316 µM) 77.3% | viability, T/C (second compound 0.0316 µM, first compound 0.01 µM) 62.1% | viability, T/C (second compound 0.0316 µM, first compound 0.0316 µM) 50% | viability, T/C (second compound 0.0316 µM, first compound 0.1 µM) 18% | viability, T/C (second compound 0.1 µM, first compound 0.000316 µM) 99.3% | viability, T/C (second compound 0.1 µM, first compound 0.001 µM) 88.2% | viability, T/C (second compound 0.1 µM, first compound 0.00316 µM) 80.2% | viability, T/C (second compound 0.1 µM, first compound 0.01 µM) 64% | viability, T/C (second compound 0.1 µM, first compound 0.0316 µM) 48.6% | viability, T/C (second compound 0.1 µM, first compound 0.1 µM) 19.5% | viability, T/C (second compound 0.316 µM, first compound 0.000316 µM) 93.2% | viability, T/C (second compound 0.316 µM, first compound 0.001 µM) 90.7% | viability, T/C (second compound 0.316 µM, first compound 0.00316 µM) 75.3% | viability, T/C (second compound 0.316 µM, first compound 0.01 µM) 62.8% | viability, T/C (second compound 0.316 µM, first compound 0.0316 µM) 48.7% | viability, T/C (second compound 0.316 µM, first compound 0.1 µM) 17.4% | viability, T/C (second compound 1 µM, first compound 0.000316 µM) 86.2% | viability, T/C (second compound 1 µM, first compound 0.001 µM) 83.1% | viability, T/C (second compound 1 µM, first compound 0.00316 µM) 70.2% | viability, T/C (second compound 1 µM, first compound 0.01 µM) 63.8% | viability, T/C (second compound 1 µM, first compound 0.0316 µM) 43.4% | viability, T/C (second compound 1 µM, first compound 0.1 µM) 17% | viability, T/C (second compound 3.16 µM, first compound 0.000316 µM) 75.4% | viability, T/C (second compound 3.16 µM, first compound 0.001 µM) 65.2% | viability, T/C (second compound 3.16 µM, first compound 0.00316 µM) 53.2% | viability, T/C (second compound 3.16 µM, first compound 0.01 µM) 45.4% | viability, T/C (second compound 3.16 µM, first compound 0.0316 µM) 39.4% | viability, T/C (second compound 3.16 µM, first compound 0.1 µM) 16.7% | viability, T/C (second compound 10 µM, first compound 0.000316 µM) 56.8% | viability, T/C (second compound 10 µM, first compound 0.001 µM) 51.4% | viability, T/C (second compound 10 µM, first compound 0.00316 µM) 50% | viability, T/C (second compound 10 µM, first compound 0.01 µM) 41.8% | viability, T/C (second compound 10 µM, first compound 0.0316 µM) 31.2% | viability, T/C (second compound 10 µM, first compound 0.1 µM) 11.9%
7.60: pIC50 (second compound 0.1 µM)
